Measured values: PubChem BioAssay AID1996
≈ marks a conversion by molar mass, not a printed value.

conditions: buffer; pH 7.4; 200.0 µM

Row | SMILES | solubility kinetic
1 | Cc1ccc(N2C(=O)c3cccc([N+](=O)[O-])c3C2=O)cc1C | 23.3 µg/mL (≈ 78.6 µM)
2 | O=C(NC1CCCc2ccccc21)c1cc(Cl)ccn1 (stereo not given) | 13.2 µg/mL (≈ 46 µM)
3 | CC(=O)c1c(-c2ccccc2)c2cc([N+](=O)[O-])ccc2[nH]c1=O | 16.3 µg/mL (≈ 52.9 µM)
4 | Nc1nc(-c2ccc(Oc3ccccc3)cc2)c(CC(=O)O)s1 | > 49 µg/mL
5 | O=C(OCC(=O)N1CCCCCC1)c1ccc(F)cc1F | 44.4 µg/mL (≈ 149 µM)
6 | COCCn1cnc2c1c(=O)n(CC(=O)NCC(F)(F)F)c(=O)n2Cc1ccccc1 | 39.9 µg/mL (≈ 90.8 µM)
7 | CC(C1CC1)N(Cc1ccccc1)C(=S)Nc1ccccc1Cl (stereo not given) | 1.1 µg/mL (≈ 3.19 µM)
8 | COC(=O)c1ccc(S(=O)(=O)NCc2ccco2)n1C | 44.3 µg/mL (≈ 148 µM)
9 | Nc1nc(-c2cc(Cl)cc(Cl)c2OC(F)F)cs1 | 2.3 µg/mL (≈ 7.39 µM)
10 | CN1CCCN(C(=O)c2ccc(Br)cc2)CC1 | 41.4 µg/mL (≈ 139 µM)
11 | Nc1ccccc1SCc1ccccc1 | 4 µg/mL (≈ 18.6 µM)
12 | COC(=O)NCN1C(=O)C2C3C=CC(C3)C2C1=O (stereo not given) | 34.4 µg/mL (≈ 137 µM)
13 | CCOC(=O)C1CCN(Cc2ccc(Cl)nc2)CC1 | > 42.4 µg/mL
14 | CC(C)(C)C(=O)NC(CC(=O)O)c1ccccc1 (stereo not given) | > 37.4 µg/mL
15 | COc1c(C)cccc1C(=O)NCc1ccc2c(c1)OCO2 | > 44.9 µg/mL
16 | COC(=O)c1cc(C(C)=O)c(C)[nH]c1=O | > 31.4 µg/mL
17 | CC(C)NC(=O)c1ccccc1NC(=O)Cc1ccc([N+](=O)[O-])cc1 | 19.1 µg/mL (≈ 56 µM)
18 | Cc1ccccc1-c1nc(C(=O)NCC2CCCO2)cc2c1[nH]c1ccccc12 (stereo not given) | 3.2 µg/mL (≈ 8.3 µM)
19 | CCOP(=O)(CN(CC)C(=O)c1ccccc1Br)OCC | > 56.7 µg/mL
20 | CCn1c(/C=C/c2ccccc2C)nc2ccccc2c1=O | 3.3 µg/mL (≈ 11.4 µM)

Row | SMILES | solubility kinetic
21 | COc1ccc(CN2C(=O)COc3ccccc32)cc1 | 34.1 µg/mL (≈ 127 µM)
22 | O=C(NCc1ccc(F)cc1)Nc1ccccc1 | 9.3 µg/mL (≈ 38.1 µM)
23 | CSc1nc(-c2ccccc2)c(C#N)c(=O)[nH]1 | > 36.5 µg/mL
24 | NC(=O)CSc1nc2cccnc2n1-c1ccc(F)cc1 | 45.2 µg/mL (≈ 150 µM)
25 | O=C1CC(c2ccccc2)CC(O)=C1C=NCCc1ccccc1 (stereo not given) | 2.1 µg/mL (≈ 6.57 µM)
26 | CSCC(CO)NS(=O)(=O)c1ccc(C)cc1 (stereo not given) | > 41.3 µg/mL
27 | COc1ccc(C(C)C)cc1S(=O)(=O)NC1CCCC1 | 3 µg/mL (≈ 10.1 µM)
28 | O=C(O)CSCC(=O)NCc1c(Cl)cccc1Oc1ccccc1 | 52 µg/mL (≈ 142 µM)
29 | CC(Sc1nccn1C)C(=O)Nc1ccc(Cl)cn1 (stereo not given) | > 44.5 µg/mL
30 | Cc1cccc(N2CCN(Cc3ccc([N+](=O)[O-])o3)CC2)c1C | 6.1 µg/mL (≈ 19.3 µM)
31 | NC(N)=NS(=O)(=O)c1ccc(NC(=S)NC(=O)c2ccccc2)cc1 | 3.9 µg/mL (≈ 10.3 µM)
32 | CCOc1ccc(CCN2CN(CC)CNC2=S)cc1OCC | > 50.6 µg/mL
33 | CC(C)=CC(=O)OCC(=O)Nc1ccc(Cl)cc1 | 36.3 µg/mL (≈ 136 µM)
34 | CCc1nonc1NC(=O)c1oc2ccc(F)cc2c1C | 0.3 µg/mL (≈ 1.04 µM)
35 | Nc1ccc(Oc2ccc3c(c2)C(=O)N(CC2CCCO2)C3=O)cc1 (stereo not given) | > 50.8 µg/mL
36 | COc1ccc(N2CCN(c3nccs3)CC2)cc1 | > 41.3 µg/mL
37 | O=C(Nc1ccc2c(c1)C(=O)OC2)c1ccc(Cl)cc1 | < 0.6 µg/mL
38 | COc1ccc(OC(C)C(=O)NCC2CCCO2)cc1 (stereo not given) | > 41.9 µg/mL
39 | COC(=O)C1CCN(C(=O)CN2C(=O)NC3(CCC(C)CC3)C2=O)CC1 (stereo not given) | > 54.8 µg/mL
40 | CCC1(C)Cc2nc(Cl)c(C#N)cc2CO1 (stereo not given) | 34.2 µg/mL (≈ 144 µM)

Row | SMILES | solubility kinetic
41 | FC(F)(F)c1ccccc1NC(=S)N1CCCCCC1 | > 45.4 µg/mL
42 | O=C(O/N=C(/c1ccccc1)c1ccncc1)c1ccccc1[N+](=O)[O-] | 8.3 µg/mL (≈ 23.9 µM)
43 | C/C(=N\NC(N)=S)c1cccnc1 | > 29.1 µg/mL
44 | CC(NC(=O)COC(=O)C1CC1C)c1cccc(Cl)c1 (stereo not given) | > 44.4 µg/mL
45 | CN(C)c1cccc(NC(=O)NC2(C)CCS(=O)(=O)C2)c1 (stereo not given) | > 46.7 µg/mL
46 | Cc1[nH]c2ccccc2c1CCNC(=O)CCC(=O)c1ccccc1 | 47.7 µg/mL (≈ 143 µM)
47 | CCOc1ccc(C(=O)Cn2cnc3ccccc3c2=O)cc1 | 8.5 µg/mL (≈ 27.6 µM)
48 | O=C(Cc1ccccc1)NCC(=O)OCc1ccccc1F | 17.3 µg/mL (≈ 57.4 µM)
49 | CCOC(=O)C1CCN(C(=O)Nc2c(-c3ccccc3)noc2C)CC1 | 52.1 µg/mL (≈ 146 µM)
50 | N#C/C(=C\N1CCOCC1)C(N)=O | > 27.2 µg/mL
51 | CC(=O)c1ccc2noc(-c3cccc(F)c3)c2c1 | 6.5 µg/mL (≈ 25.5 µM)
52 | O=C(COc1ccc2ccc(=O)oc2c1)Nc1cccnc1 | 14.2 µg/mL (≈ 47.9 µM)
53 | O=C(c1cc2ccccc2oc1=O)N1CCOCC1 | > 38.9 µg/mL
54 | CCCn1c(COc2ccc(C(=O)O)cc2)nc2ccccc21 | > 46.6 µg/mL
55 | Cc1cc(=O)[nH]c(SCC(=O)NCc2ccc3c(c2)OCO3)n1 | > 50 µg/mL
56 | Cc1cc(C(=O)COC(=O)Cc2ccc(Cl)cc2)c(C)n1C | 21.3 µg/mL (≈ 66.6 µM)
57 | CS(=O)(=O)N1CCC(C(=O)N2CCN(Cc3ccccc3)CC2)CC1 | > 54.8 µg/mL
58 | O=C1CC(NCCc2ccccc2)C(=O)N1CCc1ccccc1 (stereo not given) | 46.1 µg/mL (≈ 143 µM)
59 | Cn1c(O)c(C=Nc2cccc(C(F)(F)F)c2)c(=O)n(C)c1=O | 10.6 µg/mL (≈ 32.4 µM)
60 | N#Cc1c(C(F)(F)F)cc(-c2cccs2)nc1SCC(=O)O | 46.1 µg/mL (≈ 134 µM)
